Laboratory results as given in the NIST ThermoML archive (doi:10.1021/je060001s).
± gives the expanded uncertainty stated by the source.

Tests used:
[1] = 298.15 K; 101.33 kPa; Liquid
[2] = refractive index (Na D-line) (dimensionless); conditions: 298.15 K; 101.33 kPa; Liquid; Standard Abbe refractometry

| SMILES | mass density [1] [kg/m3] | refractive index [2] |
| --- | --- | --- |
| CC#N [acetonitrile] | 776.62 ± 0.52 | 1.3418 ± 0.0004 |
| CCCC(=O)OC [methyl butanoate] | 892.16 ± 0.37 | 1.3847 ± 0.0004 |
| CCCCC(=O)OC [methyl pentanoate] | 884.8 ± 0.38 | 1.3971 ± 0.0004 |
| CCCCCC(=O)OC [methyl hexanoate] | 879.47 ± 0.39 | 1.4048 ± 0.0004 |
